Measured values from patent US9440984B2, “Pyrrolotriazines as ALK inhibitors” (Cephalon, Inc., priority 2013, dated 2016).
Where two headings read alike, the source gives them in different places.

How the values were obtained:
ALK [1] = molecular target: T1, ALK (Homo sapiens, UniProt Q9UM73); test: ALK autophosphorylation enzyme assay; type: biochemical
Target sequence in this assay (Q9UM73 19-1620): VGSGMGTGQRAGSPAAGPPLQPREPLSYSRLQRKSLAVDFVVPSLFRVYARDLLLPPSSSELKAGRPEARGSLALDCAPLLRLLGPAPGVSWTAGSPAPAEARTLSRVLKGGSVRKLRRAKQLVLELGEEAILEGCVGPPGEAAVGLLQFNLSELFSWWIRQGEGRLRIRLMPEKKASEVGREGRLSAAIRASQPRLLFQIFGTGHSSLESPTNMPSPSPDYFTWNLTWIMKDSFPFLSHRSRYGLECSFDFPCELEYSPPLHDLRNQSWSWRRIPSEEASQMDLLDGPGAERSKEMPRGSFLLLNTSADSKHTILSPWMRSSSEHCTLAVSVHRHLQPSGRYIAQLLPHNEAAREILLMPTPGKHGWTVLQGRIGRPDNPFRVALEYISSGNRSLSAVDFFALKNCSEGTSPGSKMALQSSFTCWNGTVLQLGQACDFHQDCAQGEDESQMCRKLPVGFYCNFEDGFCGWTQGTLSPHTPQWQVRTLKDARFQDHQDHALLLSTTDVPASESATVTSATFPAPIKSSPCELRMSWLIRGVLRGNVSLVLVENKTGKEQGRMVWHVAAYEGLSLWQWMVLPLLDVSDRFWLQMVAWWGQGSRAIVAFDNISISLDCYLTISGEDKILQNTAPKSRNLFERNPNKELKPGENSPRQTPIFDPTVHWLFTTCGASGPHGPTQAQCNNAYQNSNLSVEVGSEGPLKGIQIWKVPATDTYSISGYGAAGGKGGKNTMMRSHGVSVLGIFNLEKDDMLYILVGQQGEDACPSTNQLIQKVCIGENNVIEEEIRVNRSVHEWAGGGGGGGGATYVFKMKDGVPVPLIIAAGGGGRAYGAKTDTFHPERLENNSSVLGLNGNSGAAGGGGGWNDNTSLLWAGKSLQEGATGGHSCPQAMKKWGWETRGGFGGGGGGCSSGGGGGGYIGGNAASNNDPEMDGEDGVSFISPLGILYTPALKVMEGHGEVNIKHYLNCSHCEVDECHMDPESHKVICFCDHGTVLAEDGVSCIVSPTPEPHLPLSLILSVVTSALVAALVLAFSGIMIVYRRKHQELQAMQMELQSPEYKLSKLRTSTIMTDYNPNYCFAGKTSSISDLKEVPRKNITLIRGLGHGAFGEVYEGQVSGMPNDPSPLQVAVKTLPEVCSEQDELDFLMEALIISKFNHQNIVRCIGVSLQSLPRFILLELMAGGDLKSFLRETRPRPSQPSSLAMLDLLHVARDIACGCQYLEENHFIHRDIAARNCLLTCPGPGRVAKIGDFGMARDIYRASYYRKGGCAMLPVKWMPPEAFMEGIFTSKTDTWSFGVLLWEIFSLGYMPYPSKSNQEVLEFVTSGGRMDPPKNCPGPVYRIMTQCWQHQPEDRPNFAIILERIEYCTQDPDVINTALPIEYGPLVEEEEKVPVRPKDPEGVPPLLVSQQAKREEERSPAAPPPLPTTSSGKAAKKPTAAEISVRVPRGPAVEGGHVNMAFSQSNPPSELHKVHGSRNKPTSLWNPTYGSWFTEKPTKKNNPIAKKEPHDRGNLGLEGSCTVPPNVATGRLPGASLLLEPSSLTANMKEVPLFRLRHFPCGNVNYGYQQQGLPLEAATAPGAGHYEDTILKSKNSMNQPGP

ALK [2] = molecular target: T1, ALK; test: ALK autophosphorylation cellular assay; type: cell-based; conditions: read-out: ALK Cell IC50
Target sequence in this assay (Q9UM73 with tags, fused parts or gaps): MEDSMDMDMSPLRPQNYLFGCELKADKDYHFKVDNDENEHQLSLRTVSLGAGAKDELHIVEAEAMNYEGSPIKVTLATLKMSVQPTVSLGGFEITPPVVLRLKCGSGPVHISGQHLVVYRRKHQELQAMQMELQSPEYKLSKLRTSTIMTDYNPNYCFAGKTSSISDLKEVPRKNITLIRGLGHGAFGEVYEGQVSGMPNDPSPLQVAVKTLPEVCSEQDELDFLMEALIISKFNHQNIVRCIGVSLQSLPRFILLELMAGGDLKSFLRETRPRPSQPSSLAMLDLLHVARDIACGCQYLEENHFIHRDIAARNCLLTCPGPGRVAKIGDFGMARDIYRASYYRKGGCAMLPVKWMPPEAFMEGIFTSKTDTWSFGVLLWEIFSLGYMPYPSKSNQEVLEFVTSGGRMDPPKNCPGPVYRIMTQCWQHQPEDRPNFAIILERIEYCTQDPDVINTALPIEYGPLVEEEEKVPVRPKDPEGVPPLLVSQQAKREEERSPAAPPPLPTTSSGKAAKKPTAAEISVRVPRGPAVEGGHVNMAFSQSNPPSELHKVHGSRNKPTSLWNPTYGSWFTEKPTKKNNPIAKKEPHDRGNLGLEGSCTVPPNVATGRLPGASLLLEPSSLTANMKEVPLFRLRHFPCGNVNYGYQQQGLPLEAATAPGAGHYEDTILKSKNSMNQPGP

[3] = PK/PD study: compound levels in plasma and tumor lysates (LC/MS-MS); type: in vivo; conditions: Scid mice, single p.o. 30 mg/kg, 6 h and 16 h post dose
Source text: Exponentially growing cells were implanted subcutaneously to the left flank of each mouse. The mice were monitored and when the tumor xenograft volumes reached approximately 300 to 500 mm3, mice received a single oral administration of either vehicle PEG-400 or the compound of interest (e.g., Examples 14, 16, 16a, and/or 16b) formulated in vehicle. At indicated time points postdosing, the mice were sacrificed, the blood was collected and centrifuged, and the plasma was collected. The tumors were excised and disrupted with a hand-held tissue blender in completed FRAK lysis buffer without Triton X-100. After brief sonication, the lysates were cleared by centrifugation, mixed with sample buffer, and subjected to SDS-PAGE for ALK immunoblotting as described above. The individual bands of phospho- and total NPM-ALK were scanned and quantified with the Gel Pro Analyzer software (Media Cybernetics, Inc.). The relative NPM-ALK tyrosine phosphorylation (phospho-NPMALK/NPM-ALK ratio) of each sample at indicated time points was then calculated, with the average value of vehicle-treated sample(s) as 100. The compound levels in plasma and tumor lysates were measured by liquid chromatography/tandem mass spectrometry (LC/MS-MS).

Sup-M2 ALCL xenografts = type: in vivo; conditions: Scid mice, p.o., 10 days; for anti-tumor efficacy (tumor regression): Sup-M2 xenografts
Description: The length (L) and width (W) of each tumor was measured with a Vernier caliper and the mouse body weight was determined every 2 to 3 days. […] Statistical analyses of tumor volumes and mouse body weight were carried out using the Mann-Whitney rank sum test. Plasma and tumor samples were obtained at 2 hours post-final dose, and the compound levels in plasma and tumor lysates were measured by LC/MS-MS.

[4] = Rat pharmacokinetic (PK) studies
[5] = Sprague-Dawley rat, i.v., 1 mg/kg
[6] = Sprague-Dawley rat, p.o., 5 mg/kg
[7] = Sprague-Dawley, rat, in vivo, po, 5 mg/kg
[8] = Sprague-Dawley, rat, in vivo, iv, 1 mg/kg

With `COCCN1CC[C@@H](c2ccc(Nc3ncc4ccc(-c5ccccc5OC)n4n3)c(OC)c2)[C@@H](O)C1` (racemic) [Example 1, (±)-3,4-cis-1-(2-Methoxy-ethyl)-4-{3-methoxy-4-[7-(2-methoxy-phenyl)-pyrrolo[2,1-f][1,2,4]triazin-2-ylamino]-phenyl}-piperidin-3-ol] the IC50 (ALK [1]) was 0.00333 µM and the IC50 (ALK [2]) was 0.05 µM.

With `COc1cc(C2CCN(CCO)CC2(F)F)ccc1Nc1ncc2ccc(-c3cccnc3OC)n2n1` (racemic) [Example 11, (±)-2-(3,3-Difluoro-4-{3-methoxy-4-[7-(2-methoxy-pyridin-3-yl)-pyrrolo[2,1-f][1,2,4]triazin-2-ylamino]-phenyl}-piperidin-1-yl)-ethanol] the IC50 (ALK [1]) was 0.034 µM.

For `COc1cc([C@H]2CCN(CCO)C[C@@H]2O)ccc1Nc1ncc2ccc(-c3ccccc3OC)n2n1` (single isomer, unassigned) [Example 16b], the “plasma and tumor levels, higher than with Example 16a” value [3] was 4-10 fold, the “tolerability (body weight loss, overt toxicity)” value (Sup-M2 ALCL xenografts; 30 mg/kg b.i.d.) was “well tolerated” and the “tolerability (body weight loss, overt toxicity)” value (Sup-M2 ALCL xenografts; 55 mg/kg b.i.d.) was “well tolerated”. The “anti-tumor efficacy (tumor regression)” value (Sup-M2 ALCL xenografts; 30 mg/kg b.i.d.) was “Complete tumor regressions” and the “anti-tumor efficacy (tumor regression)” value (Sup-M2 ALCL xenografts; 55 mg/kg b.i.d.) was “Complete tumor regressions”.

Work on `COc1cc(C2CCN(CCO)CC2)ccc1Nc1ncc2ccc(-c3ccccc3OC)n2n1` [Example 18, 2-(4-{3-Methoxy-4-[7-(2-methoxy-phenyl)-pyrrolo[2,1-f][1,2,4]triazin-2-ylamino]-phenyl}-piperidin-1-yl)-ethanol] yielded an IC50 (ALK [1]) of 0.003 µM and an IC50 (ALK [2]) of 0.15 µM.

With `COc1cc([C@@H]2CCN(CCO)C[C@@H]2O)ccc1Nc1ncc2ccc(-c3ccccc3OC)n2n1` (racemic) [Example 14, (±)-3,4-cis-1-(2-Hydroxy-ethyl)-4-{3-methoxy-4-[7-(2-methoxy-phenyl)-pyrrolo[2,1-f][1,2,4]triazin-2-ylamino]-phenyl}-piperidin-3-ol] the “AUC0-∞” value [4, 5] was 371 ± 6 ng·h/mL, the CL [4, 5] was 46 ± 1 mL/min/kg and the Vd [4, 5] was 9.9 ± 2 L/kg. For the same molecule, the t1/2 [4, 5] was 2.5 ± 0.6 h, the “AUC0-∞” value [4, 6] was 479 ± 83 ng·h/mL and the Cmax [4, 6] was 85 ± 15 ng/mL. The F % [4, 6] was 26 ± 4%, the Tmax [4, 7] was 6 h and the “rat PK properties (in words)” value ([4]; rat) was “acceptable rat PK properties”.

In the case of `COc1cc(C2CCNCC2(F)F)ccc1Nc1ncc2ccc(-c3cccnc3OC)n2n1` (racemic) [Example 12, (±)-[4-(3,3-Difluoro-piperidin-4-yl)-2-methoxy-phenyl]-[7-(2-methoxy-pyridin-3-yl)-pyrrolo[2,1-f][1,2,4]triazin-2-yl]-amine], the IC50 (ALK [1]) is reported as 0.0137 µM and the IC50 (ALK [2]) is reported as 0.2 µM.

`COc1cc(C2CCN(CCO)CC2(F)F)ccc1Nc1ncc2ccc(-c3ccccc3OC)n2n1` (racemic) [Example 9, (±)-2-(3,3-Difluoro-4-{3-methoxy-4-[7-(2-methoxy-phenyl)-pyrrolo[2,1-f][1,2,4]triazin-2-ylamino]-phenyl}-piperidin-1-yl)-ethanol] showed an IC50 (ALK [1]) of 0.0282 µM.

Molecule `COc1cc([C@@H]2CCN(CC(C)(C)O)C[C@H]2F)ccc1Nc1ncc2ccc(-c3cccnc3OC)n2n1` (racemic) [Example 10, (±)-1-(3,4-trans-3-Fluoro-4-{3-methoxy-4-[7-(2-methoxy-pyridin-3-yl)-pyrrolo[2,1-f][1,2,4]triazin-2-ylamino]-phenyl}-piperidin-1-yl)-2-methyl-propan-2-ol] has an IC50 (ALK [1]) of 0.0252 µM.

For `COc1cc([C@@H]2CCNC[C@@H]2O)ccc1Nc1ncc2ccc(-c3cccnc3OC)n2n1` (racemic) [Example 4, (±)-3,4-cis-4-{3-Methoxy-4-[7-(2-methoxy-pyridin-3-yl)-pyrrolo[2,1-f][1,2,4]triazin-2-ylamino]-phenyl}-piperidin-3-ol], the IC50 (ALK [1]) was 0.014 µM.

For `COc1cc([C@@H]2CCNC[C@H]2F)ccc1Nc1ncc2ccc(-c3ccccc3OC)n2n1` (racemic) [Example 5, (±)-[4-(3,4-trans-3-Fluoro-piperidin-4-yl)-2-methoxy-phenyl]-[7-(2-methoxy-phenyl)-pyrrolo[2,1-f][1,2,4]triazin-2-yl]-amine], the IC50 (ALK [1]) was 0.00566 µM.

`COc1cc([C@@H]2CCN(CCO)C[C@H]2O)ccc1Nc1ncc2ccc(-c3ccccc3OC)n2n1` (racemic) [Example 16, (±)-3,4-trans-1-(2-Hydroxy-ethyl)-4-{3-methoxy-4-[7-(2-methoxy-phenyl)-pyrrolo[2,1-f][1,2,4]triazin-2-ylamino]-phenyl}-piperidin-3-ol] gave an AUC(0-inf) [4, 8] of 459 ± 72 ng·h/mL, a Vd [4, 8] of 10.3 ± 1.3 L/kg and a clearance [4, 8] of 39 ± 7 mL/min/kg. It also gave a half-life [4, 8] of 3.2 ± 0.6 h, an AUC(0-inf) [4, 7] of 708 ± 63 ng·h/mL and a Cmax [4, 7] of 97 ± 10 ng/mL. The Tmax [4, 7] was 4 ± 1.2 h, the bioavailability [4, 7] was 31 ± 3% and the “rat PK properties (in words)” value ([4]; rat) was “acceptable rat PK properties”.
